Experimental findings from ChEMBL document CHEMBL6134894, “Medoxomil Prodrug Strategies” (J Med Chem, 2025) are described below.

For data set [1], the system named is Human immunodeficiency virus 1. Briefly: Antiviral activity against HIV-1 infected in human MT4 cells assessed as inhibition of viral growth. Type of data set: functional, organism-based. The conditions noted are these: Human immunodeficiency virus 1, MT4.
Data set [2] is described as follows: Lipophilicity, logP of the compound. Type of data set: physicochemical. As to conditions: octanol/water.
The nature of data set [3]: Oral bioavailability in rat. The class given is ADME, organism-based. The conditions noted are these: in vivo.
A short description of data set [4]: Oral bioavailability in Sprague-Dawley rat at 10 mg/kg measured for 24 hrs by LC-MS/MS analysis. Type of data set: ADME, organism-based. The conditions noted are these: in vivo.
A short description of data set [5]: Oral bioavailability in Sprague-Dawley rat. Type of data set: ADME, organism-based. The conditions noted are these: in vivo.
Data set [6] can be described thus: Oral bioavailability in Beagle dog. Type of data set: ADME, organism-based, Canis lupus familiaris. As to conditions: in vivo.
Data set [7] is described as follows: AUC in human at 20 mg/kg, po by LC-MS/MS analysis. The class given is ADME, organism-based. The conditions noted are these: in vivo.
Data set [8] can be described thus: Cmax in human at 20 mg/kg, po by LC-MS/MS analysis. The class given is ADME, organism-based. As to conditions: in vivo.
A short description of data set [9]: Toxicity in Wistar rat assessed as effective dose. The conditions noted are these: in vivo, 6 h.
Data set [10] can be described thus: Half life in Wistar rat at 20 mg/kg, po by LC-MS/MS analysis. Type of data set: ADME, organism-based. As to conditions: in vivo.
The nature of data set [11]: Water solubility of the compound at pH 7.4 by HPLC analysis. Type of data set: physicochemical.
A short description of data set [12]: Permeability across apical to basolateral side in human Caco-2 cells. Type of data set: ADME, cell-based. The conditions noted are these: read-out: permeability. On the technique in general: Caco-2 cells form a polarised layer with tight junctions and transporters.
Data set [13] is described as follows: Inhibition of ADP-induced platelet aggregation in New Zealand White rabbit. The class given is functional, Oryctolagus cuniculus.
Data set [14] in a line: Oral bioavailability in dog at 0.03 mg/kg. Type of data set: ADME, organism-based, Canis lupus familiaris. The conditions noted are these: in vivo.

The structures appear in SMILES notation. pEC50: −log10 of the molar value. Some results are limits rather than exact numbers.

Consider `Nc1ncnc2c1ncn2CCOCP(=O)(O)O` [ADEFOVIR], for which the pEC50 in data set [1] is 4.98. `Cc1oc(=O)oc1COC(=O)CC[C@H](NC(=O)c1ccc(CCc2c[nH]c3[nH]c(N)nc(=O)c23)cc1)C(=O)OCc1oc(=O)oc1C`: the logP in data set [2] (read-out: logP) turned out to be 2.64. Take `COC(=O)N[C@H](C(=O)N[C@@H](Cc1ccccc1)[C@@H](O)CN(Cc1ccc(-c2ccccn2)cc1)NC(=O)[C@@H](NC(=O)OC)C(C)(C)C)C(C)(C)C` [ATAZANAVIR]: the F in data set [3] was determined as 1%. Moreover, the bioavailability in data set [4] was 20%. `C=C(c1ccc(C(=O)OCC)cc1)c1cc2c(cc1C)C(C)(C)CCC2(C)C` yielded a bioavailability in [5] of 35%.

As to `C[C@](N)(Cc1ccc(O)c(O)c1)C(=O)O` [METHYLDOPA], the bioavailability in [6] was 94.2%. In data set [7], `CC1Sc2c(C(=O)O)c(=O)c3cc(F)c(N4CCNCC4)cc3n21` (stereo unspecified) [ULIFLOXACIN] returned an AUC of 22200 ng·h/mL. In data set [8], this compound had a Cmax of 630 ng/mL.

Regarding `Cc1oc(=O)oc1COC(=O)CC[C@H](NC(=O)c1ccc(CCc2c[nH]c3[nH]c(N)nc(=O)c23)cc1)C(=O)O`, in data set [2] (read-out: logP), the logP is 1.72.

Take `CCCCc1nc(Cl)c(C(=O)O)n1Cc1ccc(-c2ccccc2-c2nn[nH]n2)cc1` [CARBOXYLIC ACID METABOLITE]: in data set [9], the ED50 is 9.05 µg/kg. In [10], `CCCc1nc(C(C)(C)O)c(C(=O)O)n1Cc1ccc(-c2ccccc2-c2nnn[nH]2)cc1` [OLMESARTAN] had a half-life of 30 min. In [11], `Cc1oc(=O)oc1COC(=O)N1CC[C@@H](N2CC/C(=C\C3=C(C(=O)O)N4C(=O)[C@@H](NC(=O)/C(=N\O)c5nsc(N)n5)[C@H]4SC3)C2=O)C1` showed a solubility greater than 200 µg/mL. For `C=C(c1ccc(C(=O)O)cc1)c1cc2c(cc1C)C(C)(C)CCC2(C)C` [BEXAROTENE], the bioavailability in [5] came to 75%. As to `CCOc1nc2cccc(C(=O)OCc3oc(=O)oc3C)c2n1Cc1ccc(-c2ccccc2-c2noc(=O)[nH]2)cc1` [AZILSARTAN MEDOXOMIL], the Papp A→B in data set [12] was found to be 2.8 ×10⁻⁶ cm/s. For `Cc1oc(=O)oc1COC(=O)N1CCC(CC[C@@H]2CCCN(CC(=O)N[C@H](C)CC(=O)O)C2=O)CC1`, the “inhibition (INH)” value in data set [13] is 100%. Further, the bioavailability in data set [14] turned out to be 23%. Regarding `CCOc1nc2cccc(C(=O)O)c2n1Cc1ccc(-c2ccccc2-c2noc(=O)[nH]2)cc1` [AZILSARTAN], the Papp A→B in data set [12] is 0.636 ×10⁻⁶ cm/s. In turn, `Nc1nc2[nH]cc(CCc3ccc(C(=O)N[C@@H](CCC(=O)O)C(=O)O)cc3)c2c(=O)[nH]1` [PEMETREXED] yielded a logP in [2] of 0.75. As to `Cc1oc(=O)oc1COP(=O)(O)COCCn1cnc2c(N)ncnc21`, the pEC50 in data set [1] was 4.97.

As to `C=C(c1ccc(C(=O)OCc2oc(=O)oc2C)cc1)c1cc2c(cc1C)C(C)(C)CCC2(C)C`, the bioavailability in data set [5] came out at 12%. On to `Cc1oc(=O)oc1COC(=O)[C@@](C)(N)Cc1ccc(O)c(O)c1`, for which the bioavailability in data set [6] is 92.1%.

By pEC50 is commonly meant the EC50 on a negative log10 scale, so that one unit is a factor of ten. For orientation: logP means a log measure of how a compound divides between an organic and an aqueous phase. Broadly, the bioavailability is dose-corrected exposure relative to a reference, in per cent. Read a high bioavailability as good availability. What is called AUC is concentration integrated over time. A low value points to less exposure. What is called Cmax is the highest concentration seen after dosing. A word on the ED50: it is the dose at which the effect has come halfway, by size or by number of responders. In general, half-life refers to the time needed for the level to fall by half in the phase considered. A high value points to slow loss. In general, solubility refers to the dissolved amount per volume that the medium holds. Lower therefore signals little dissolved substance.
